Measured values taken from patent publication US9676714B2, “Sulfonylindole derivatives and method for preparing the same” (Daewoong Pharmaceutical Co., Ltd., priority 2013, dated 2017).
Counter-ions that a name gives are not always drawn.

How the values were obtained:
[1] = test system: basal gastric acid secretion; assay: Inhibitory effect on the basal gastric acid secretion in pylorus-ligated rats (Shay's rat model); type: in vivo, Sprague Dawley (SD) rats; details: 5 h, male SD rats, 3 mg/kg/2 ml into the duodenum, five hours after the ligation, total gastric acid secretion vs control group
Method: 3) Inhibitory Effect on the Basal Gastric Acid Secretion in Pylorus-Ligated Rats
Assays for determining inhibitory effect of the compounds of the present invention on the basal gastric acid secretion was performed according to Shay's rat model (Shay, H., et al., 1945, gastroenterology, 5, p. 43-61). Male Sprague Dawley (SD) rats with a body weight in the range of 180˜220 g were divided into test (n=5) and control groups (n=5), and fasted for 18 hours with free access to water. Under isoflurane anesthesia, the abdomens of the rats were incised and then the pylorus was ligated. After the ligation, the control groups were administered with only 10% ethanol, 20% polyethylene glycol (PEG) 400, and 10% aqueous Cremophor solution through the duodenum, and the other groups were administered with test compounds suspended in 10% ethanol, 20% PEG 400, and 10% aqueous Cremophor solution at a concentration of 3 mg/kg/2 ml into the duodenum. Five hours after the ligation, the experimental animals were euthanized and their stomach contents were collected. The thus obtained contents were centrifuged at 4,000×g for 10 minutes, and the supernatant was recovered to obtain gastric juice therefrom. The amount of the gastric juice and its pH were measured. The acidity of the gastric juice was determined by 0.1 N-NaOH volume (ueq/mL) for automatic titration of gastric acid to pH 7.0. The total acid output was obtained by multiplying the gastric acidity by the amount of gastric juice. Inhibition Activity (%) of Test Compounds=(total gastric acid secretion in control group−total gastric acid secretion in groups treated with test compounds)/total gastric acid secretion in control group×100

[2] = biological target: T1, proton pump (H+/K+-ATPase) (Sus scrofa, UniProt P19156); assay: Measurement of inhibitory effects on proton pump (H+/K+-ATPase) activities; type: biochemical; details: hog gastric vesicles, K+-specific H+/K+-ATPase activity, Tris-HCl buffer pH 7.4, 37° C. for 40 minutes, malachite green Pi readout
T1 construct: Gastric vesicles were prepared from hog stomach via centrifugal separation; from tissue; host or cells: hog stomach (gastric vesicles, method of Rabon et al. 1988)
T1 sequence (P19156 whole entry): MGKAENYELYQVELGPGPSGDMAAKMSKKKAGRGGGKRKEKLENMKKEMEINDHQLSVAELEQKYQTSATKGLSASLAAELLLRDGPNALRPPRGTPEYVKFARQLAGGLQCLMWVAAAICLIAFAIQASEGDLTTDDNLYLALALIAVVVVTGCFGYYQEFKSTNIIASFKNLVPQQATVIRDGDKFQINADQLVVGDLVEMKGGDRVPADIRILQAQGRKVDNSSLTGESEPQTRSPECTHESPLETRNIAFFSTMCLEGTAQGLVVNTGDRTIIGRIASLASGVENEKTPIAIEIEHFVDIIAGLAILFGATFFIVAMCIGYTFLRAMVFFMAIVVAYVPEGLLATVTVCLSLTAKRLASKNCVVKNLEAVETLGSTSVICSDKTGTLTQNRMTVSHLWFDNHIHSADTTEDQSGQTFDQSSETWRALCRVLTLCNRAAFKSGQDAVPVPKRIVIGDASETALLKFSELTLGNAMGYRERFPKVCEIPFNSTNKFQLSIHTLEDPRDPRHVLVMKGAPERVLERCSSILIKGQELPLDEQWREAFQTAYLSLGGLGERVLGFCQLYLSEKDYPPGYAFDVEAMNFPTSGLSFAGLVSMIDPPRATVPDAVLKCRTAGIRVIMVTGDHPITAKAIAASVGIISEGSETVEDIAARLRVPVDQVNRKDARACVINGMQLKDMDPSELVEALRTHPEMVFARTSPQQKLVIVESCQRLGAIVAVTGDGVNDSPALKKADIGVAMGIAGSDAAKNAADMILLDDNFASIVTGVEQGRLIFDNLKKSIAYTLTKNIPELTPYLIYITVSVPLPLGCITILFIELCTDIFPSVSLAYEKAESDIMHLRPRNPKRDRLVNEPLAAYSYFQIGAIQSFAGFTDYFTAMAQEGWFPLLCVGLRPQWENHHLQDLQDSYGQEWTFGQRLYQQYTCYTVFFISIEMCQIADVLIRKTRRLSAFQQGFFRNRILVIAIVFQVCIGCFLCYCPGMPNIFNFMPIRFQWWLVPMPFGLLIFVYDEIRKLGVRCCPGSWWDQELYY
T1 sequence (P18434 whole entry partner): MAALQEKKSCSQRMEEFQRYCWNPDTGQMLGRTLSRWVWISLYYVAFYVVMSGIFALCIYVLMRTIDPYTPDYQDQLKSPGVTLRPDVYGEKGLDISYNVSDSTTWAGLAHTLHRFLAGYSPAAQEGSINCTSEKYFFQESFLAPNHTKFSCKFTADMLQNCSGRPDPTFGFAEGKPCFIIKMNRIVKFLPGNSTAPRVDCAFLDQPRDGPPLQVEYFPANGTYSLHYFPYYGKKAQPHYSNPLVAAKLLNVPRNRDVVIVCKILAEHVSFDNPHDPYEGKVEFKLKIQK
How it was run: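 Hog gastric vesicles in 60 mmol/l Tris-HCl pH 7.4 with 0.5% DMSO were treated with compounds at room temperature; reaction was started with 10 μl of 10 mmol/l ATP stock. Released Pi was read at 570 nm, K+-specific activity taken as the ±K+ difference. IC50 from 4-parameter logistic fit.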

SMILES | inhibition in vivo at 3 mg/kg [1] [%] | IC50 [2] [nM]
CNCc1cn(S(=O)(=O)c2cccc(Cl)c2)c2cc(Nc3ccc(C)cc3OC(F)(F)F)ccc12 [Example 148, 1-((3-chlorophenyl)sulfonyl)-N-(4-methyl-2-(trifluoromethoxy)phenyl)-3-((methylamino)methyl)-1H-indol-6-amine hydrochloride] | 45 | 10
CNCc1cn(S(=O)(=O)c2cccc(Cl)c2)c2cc(Nc3ccc(OC)cc3F)ccc12 [Example 153, 1-((3-chlorophenyl)sulfonyl)-N-(2-fluoro-4-methoxyphenyl)-3-((methylamino)methyl)-1H-indol-6-amine hydrochloride] | 42 | 260
CNCc1cn(S(=O)(=O)c2cccc(Cl)c2)c2cc(Nc3ccc(OC)nc3Cl)ccc12 [Example 160, N-(2-chloro-6-methoxypyridin-3-yl)-1-((3-chlorophenyl)sulfonyl)-3-((methylamino)methyl)-1H-indol-6-amine hydrochloride] | 57 | 290
CNCc1cn(S(=O)(=O)c2cccc(OC(F)F)c2)c2cc(Nc3ccc(OC)nc3Cl)ccc12 [Example 182, N-(2-chloro-6-methoxypyridin-3-yl)-1-((3-(difluoromethoxy)phenyl)sulfonyl)-3-((methylamino)methyl)-1H-indol-6-amine hydrochloride] | 44 | 390
CNCc1cn(S(=O)(=O)c2cncc(F)c2)c2cc(Nc3ccc(C)cc3F)ccc12 [Example 210, N-(2-fluoro-4-methylphenyl)-1-((5-fluoropyridin-3-yl)sulfonyl)-3-((methylamino)methyl)-1H-indol-6-amine hydrochloride] | 43 | 370
CNCc1cn(S(=O)(=O)c2cncc(F)c2)c2cc(Nc3ccc(C)cc3Cl)ccc12 [Example 211, N-(2-chloro-4-methylphenyl)-1-((5-fluoropyridin-3-yl)sulfonyl)-3-((methylamino)methyl)-1H-indol-6-amine hydrochloride] | 43 | 90
CNCc1cn(S(=O)(=O)c2cncc(F)c2)c2cc(Nc3ccc(F)cc3C)ccc12 [Example 212, N-(4-fluoro-2-methylphenyl)-1-((5-fluoropyridin-3-yl)sulfonyl)-3-((methylamino)methyl)-1H-indol-6-amine hydrochloride] | 56 | 180
CNCc1cn(S(=O)(=O)c2cncc(F)c2)c2cc(Nc3ccc(F)cc3Cl)ccc12 [Example 213, N-(2-chloro-4-fluorophenyl)-1-((5-fluoropyridin-3-yl)sulfonyl)-3-((methylamino)methyl)-1H-indol-6-amine hydrochloride] | 50 | 160
CNCc1cn(S(=O)(=O)c2cncc(F)c2)c2cc(Nc3ccc(OC)cc3OC(F)(F)F)ccc12 [Example 214, 1-((5-fluoropyridin-3-yl)sulfonyl)-N-(4-methoxy-2-(trifluoromethoxy)phenyl)-3-((methylamino)methyl)-1H-indol-6-amine hydrochloride] | 75 | 1690
CNCc1cn(S(=O)(=O)c2cncc(F)c2)c2cc(Nc3ccc(OC(F)(F)F)cc3OC)ccc12 [Example 216, 1-((5-fluoropyridin-3-yl)sulfonyl)-N-(2-methoxy-4-(trifluoromethoxy)phenyl)-3-((methylamino)methyl)-1H-indol-6-amine hydrochloride] | 69 | 1500
CNCc1cn(S(=O)(=O)c2cncc(F)c2)c2cc(Nc3ccc(OC)nc3Cl)ccc12 [Example 217, N-(2-chloro-6-methoxypyridin-3-yl)-1-((5-fluoropyridin-311)sulfonyl)-3-((methylamino)methyl)-1H-indol-6-amine hydrochloride] | 44 | 540
CNCc1cn(S(=O)(=O)c2cncc(F)c2)c2cc(Nc3ccc(C(F)(F)F)nc3Cl)ccc12 [Example 218, N-(2-chloro-6-(trifluoromethyl)pyridin-3-yl)-1-((5-fluoropyridin-3-yl)sulfonyl)-3-((methylamino)methyl)-1H-indol-6-amine hydrochloride] | 49 | 2920
CNCc1cn(S(=O)(=O)c2cccc(C)c2)c2cc(Nc3ccc(C)cc3F)ccc12 [Example 226, N-(2-fluoro-4-methylphenyl)-3-((methylamino)methyl)-1-(m-tolylsulfonyl)-1H-indol-6-amine hydrochloride] | 44 | 1160
CNCc1cn(S(=O)(=O)c2cccnc2)c2cc(Cc3ccc(C)cc3Cl)ccc12 [Example 267, 1-(6-(2-chloro-4-methylbenzyl)-1-(pyridin-3-ylsulfonyl)-1H-indol-3-yl)-N-methylmethanamine hydrochloride] | 44 | 230
CNCc1cn(S(=O)(=O)c2cccnc2)c2cc(Cc3ccc(C)cc3)ccc12 [Example 270, N-methyl-1-(6-(4-methylbenzyl)-1-(pyridin-3-ylsulfonyl)-1H-indol-3-yl)methanamine hydrochloride] | 38 | 790
CNCc1cn(S(=O)(=O)c2cccnc2)c2cc(Cc3ccc(C)cc3F)ccc12 [Example 272, 1-(6-(2-fluoro-4-methylbenzyl)-1-(pyridin-3-ylsulfonyl)-1H-indol-3-yl)-N-methylmethanamine hydrochloride] | 41 | 500
CNCc1cn(S(=O)(=O)c2cccnc2)c2cc(Cc3ccc(F)cc3Cl)ccc12 [Example 273, 1-(6-(2-chloro-4-fluorobenzyl)-1-(pyridin-3-ylsulfonyl)-1H-indol-3-yl)-N-methylmethanamine hydrochloride] | 32 | 370
CNCc1cn(S(=O)(=O)c2cccnc2)c2cc(Cc3ccc(C)c(F)c3F)ccc12 [Example 286, 1-(6-(2,3-difluoro-4-methylbenzyl)-1-(pyridin-3-ylsulfonyl)-1H-indol-3-yl)-N-methylmethanamine hydrochloride] | 35 | 390
CNCc1cn(S(=O)(=O)c2cccc(C(F)(F)F)c2)c2cc(N(C)c3ccc(OC)nc3Cl)ccc12 [Example 315, N-(2-chloro-6-methoxypyridin-3-yl)-N-methyl-3-((methylamino)methyl)-1-((3-(trifluoromethyl)phenyl)sulfonyl)-1H-indol-6-amine hydrochloride] | 45 | 2950
CNCc1cn(S(=O)(=O)c2cccc(F)c2)c2cc(Nc3ccc(Cl)cc3Cl)cnc12 [Example 342, N-(2,4-dichlorophenyl)-1-((3-fluorophenyl)sulfonyl)-3-((methylamino)methyl)-1H-pyrrolo[3,2-b]pyridin-6-amine hydrochloride] | 41 | 400
CNCc1cn(S(=O)(=O)c2cccc(F)c2)c2cc(Nc3ccc(OC(F)(F)F)cc3OC)ncc12 [Example 356, 1-((3-fluorophenyl)sulfonyl)-N-(2-methoxy-4-(trifluoromethoxy)phenyl)-3-((methylamino)methyl)-1H-pyrrolo[3,2-c]pyridin-6-amine hydrochloride] | 63 | 2000
